IC50, Ratio IC50 and inhibition data for 1 compound are collected here from ChEMBL document CHEMBL3352554, “Synthesis and structure-activity relationships of 4-fluorophenyl-imidazole p38α MAPK, CK1δ and JAK2 kinase inhibitors” (Bioorg Med Chem Lett, 2014).

In experiment [1] the target is T1, Mitogen-activated protein kinase 14 (Homo sapiens, UniProt Q16539). The experiment can be described thus: Inhibition of p38alpha MAPK (unknown origin) by radiometric assay.
The target of experiment [2] is Casein kinase I isoform delta (Homo sapiens, UniProt P48730). Description: Inhibition of CK1-delta (unknown origin) by radiometric assay.
Chain of Casein kinase I isoform delta (P48730 whole entry, canonical isoform): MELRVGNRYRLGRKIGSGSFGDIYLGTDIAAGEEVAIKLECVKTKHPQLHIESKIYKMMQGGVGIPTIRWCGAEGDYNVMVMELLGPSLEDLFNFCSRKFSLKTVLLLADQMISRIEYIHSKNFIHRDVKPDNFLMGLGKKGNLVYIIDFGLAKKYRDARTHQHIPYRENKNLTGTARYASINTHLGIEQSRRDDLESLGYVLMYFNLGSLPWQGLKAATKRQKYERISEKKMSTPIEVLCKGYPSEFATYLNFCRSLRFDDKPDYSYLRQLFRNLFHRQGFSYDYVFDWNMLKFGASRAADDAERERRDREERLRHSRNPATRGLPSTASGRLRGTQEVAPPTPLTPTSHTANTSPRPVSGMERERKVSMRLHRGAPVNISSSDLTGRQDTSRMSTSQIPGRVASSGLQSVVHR
Experiment [3] concerns the target Tyrosine-protein kinase JAK1 (Homo sapiens, UniProt P23458). The experiment can be described thus: Inhibition of JAK1 (unknown origin) by radiometric assay.
Experiment [4] deals with Tyrosine-protein kinase JAK2 (Homo sapiens, UniProt O60674). The experiment can be described thus: Inhibition of JAK2 (unknown origin) by radiometric assay.
Chain of Tyrosine-protein kinase JAK2 (O60674 whole entry): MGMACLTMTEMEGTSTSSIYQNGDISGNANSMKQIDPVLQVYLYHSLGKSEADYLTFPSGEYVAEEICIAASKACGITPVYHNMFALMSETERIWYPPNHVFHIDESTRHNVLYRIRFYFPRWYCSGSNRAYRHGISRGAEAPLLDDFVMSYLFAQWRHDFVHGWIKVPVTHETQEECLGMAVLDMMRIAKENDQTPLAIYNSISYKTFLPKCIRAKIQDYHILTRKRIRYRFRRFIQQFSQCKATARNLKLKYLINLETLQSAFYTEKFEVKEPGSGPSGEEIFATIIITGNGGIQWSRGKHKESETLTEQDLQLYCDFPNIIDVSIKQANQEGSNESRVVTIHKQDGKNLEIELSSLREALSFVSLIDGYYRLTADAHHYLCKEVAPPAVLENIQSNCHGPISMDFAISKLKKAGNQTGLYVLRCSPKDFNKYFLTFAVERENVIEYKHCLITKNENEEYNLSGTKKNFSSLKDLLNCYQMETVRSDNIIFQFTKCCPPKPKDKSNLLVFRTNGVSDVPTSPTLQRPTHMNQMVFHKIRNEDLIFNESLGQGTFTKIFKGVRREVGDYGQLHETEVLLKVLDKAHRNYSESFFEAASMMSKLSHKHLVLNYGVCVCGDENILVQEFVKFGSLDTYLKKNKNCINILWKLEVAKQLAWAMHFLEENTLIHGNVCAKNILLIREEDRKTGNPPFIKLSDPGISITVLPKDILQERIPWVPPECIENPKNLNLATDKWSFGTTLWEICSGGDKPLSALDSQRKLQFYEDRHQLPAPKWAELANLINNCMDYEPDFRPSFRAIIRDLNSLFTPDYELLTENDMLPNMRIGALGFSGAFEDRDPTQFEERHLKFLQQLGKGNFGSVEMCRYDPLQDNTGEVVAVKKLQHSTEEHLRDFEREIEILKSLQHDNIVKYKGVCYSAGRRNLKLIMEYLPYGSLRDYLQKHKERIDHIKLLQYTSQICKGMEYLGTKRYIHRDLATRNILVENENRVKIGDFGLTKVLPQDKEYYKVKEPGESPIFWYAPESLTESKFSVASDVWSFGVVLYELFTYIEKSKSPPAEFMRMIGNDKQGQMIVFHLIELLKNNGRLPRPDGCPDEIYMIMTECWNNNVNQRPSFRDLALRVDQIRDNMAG
Experiment [5] concerns the target T2, Tyrosine-protein kinase JAK3 (Homo sapiens, UniProt P52333).
T2 sequence (P52333 whole entry): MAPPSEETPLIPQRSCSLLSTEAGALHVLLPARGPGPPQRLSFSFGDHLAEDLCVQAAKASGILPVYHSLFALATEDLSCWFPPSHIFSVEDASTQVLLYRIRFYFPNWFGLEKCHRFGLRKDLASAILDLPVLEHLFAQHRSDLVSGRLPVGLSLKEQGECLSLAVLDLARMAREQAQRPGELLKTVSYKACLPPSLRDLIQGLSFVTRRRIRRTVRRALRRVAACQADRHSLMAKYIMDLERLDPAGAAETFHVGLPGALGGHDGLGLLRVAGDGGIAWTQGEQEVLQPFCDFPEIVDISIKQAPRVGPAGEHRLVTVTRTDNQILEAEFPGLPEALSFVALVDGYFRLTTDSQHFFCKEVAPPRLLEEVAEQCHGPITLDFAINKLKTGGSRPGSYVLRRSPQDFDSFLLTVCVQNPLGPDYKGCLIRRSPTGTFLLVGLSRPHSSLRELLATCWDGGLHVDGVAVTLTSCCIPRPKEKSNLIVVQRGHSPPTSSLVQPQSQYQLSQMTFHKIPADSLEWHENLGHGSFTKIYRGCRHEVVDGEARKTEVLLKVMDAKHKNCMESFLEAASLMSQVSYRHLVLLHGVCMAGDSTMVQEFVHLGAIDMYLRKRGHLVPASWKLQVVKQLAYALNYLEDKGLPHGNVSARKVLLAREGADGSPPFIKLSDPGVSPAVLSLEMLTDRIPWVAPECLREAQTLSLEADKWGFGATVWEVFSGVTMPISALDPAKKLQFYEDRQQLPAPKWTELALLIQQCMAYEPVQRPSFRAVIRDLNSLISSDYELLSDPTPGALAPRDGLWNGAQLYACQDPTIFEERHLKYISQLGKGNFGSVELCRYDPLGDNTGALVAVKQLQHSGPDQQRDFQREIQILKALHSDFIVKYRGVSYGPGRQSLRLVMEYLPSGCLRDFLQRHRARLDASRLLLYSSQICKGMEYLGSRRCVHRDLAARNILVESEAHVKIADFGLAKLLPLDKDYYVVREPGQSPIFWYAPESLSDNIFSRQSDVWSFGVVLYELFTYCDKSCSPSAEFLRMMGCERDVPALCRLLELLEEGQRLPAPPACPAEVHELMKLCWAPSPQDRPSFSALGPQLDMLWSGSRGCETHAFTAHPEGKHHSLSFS
The experiment can be described thus: Inhibition of JAK3 (unknown origin) by radiometric assay.

The species named for experiment [6] is Homo sapiens. The experiment can be described thus: Selectivity ratio of IC50 for p38alpha MAPK (unknown origin) to IC50 for JAK2 (unknown origin).
The species entered for experiment [7] is Homo sapiens. Description: Selectivity ratio of IC50 for p38alpha MAPK (unknown origin) to IC50 for CK1-delta (unknown origin).
Experiment [8] addresses T1, Mitogen-activated protein kinase 14. Description: Inhibition of p38alpha MAPK in TNF-alpha-induced HUVEC assessed as downregulation of IL-6 mRNA expression at 10 uM incubated for 4 hrs by RT-PCR analysis. Type of experiment: cell-based.
Experiment [9] has the same target. Description: Inhibition of p38alpha MAPK in TNF-alpha-induced HUVEC assessed as downregulation of COX-2 mRNA expression at 10 uM incubated for 4 hrs by RT-PCR analysis. Type of experiment: cell-based.
For experiment [10] the target is unchanged. Description: Inhibition of p38alpha MAPK in TNF-alpha-induced HUVEC assessed as downregulation of VCAM-1 mRNA expression at 10 uM incubated for 4 hrs by RT-PCR analysis. It counts as cell-based.

Activity calls are given as the source filed them. The calls are words filed in the database; no cut-off is given here.

T1 sequence (Q16539 whole entry, canonical isoform): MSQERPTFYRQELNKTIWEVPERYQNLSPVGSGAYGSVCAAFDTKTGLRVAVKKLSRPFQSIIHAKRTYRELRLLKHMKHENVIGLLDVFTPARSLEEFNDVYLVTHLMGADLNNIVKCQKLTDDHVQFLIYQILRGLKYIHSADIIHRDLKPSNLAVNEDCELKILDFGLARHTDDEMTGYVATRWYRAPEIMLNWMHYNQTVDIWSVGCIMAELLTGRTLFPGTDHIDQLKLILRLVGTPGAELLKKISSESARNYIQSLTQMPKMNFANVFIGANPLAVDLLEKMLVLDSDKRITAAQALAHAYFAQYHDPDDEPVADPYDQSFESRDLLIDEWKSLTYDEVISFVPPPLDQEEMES
Chain of Tyrosine-protein kinase JAK1 (P23458 whole entry): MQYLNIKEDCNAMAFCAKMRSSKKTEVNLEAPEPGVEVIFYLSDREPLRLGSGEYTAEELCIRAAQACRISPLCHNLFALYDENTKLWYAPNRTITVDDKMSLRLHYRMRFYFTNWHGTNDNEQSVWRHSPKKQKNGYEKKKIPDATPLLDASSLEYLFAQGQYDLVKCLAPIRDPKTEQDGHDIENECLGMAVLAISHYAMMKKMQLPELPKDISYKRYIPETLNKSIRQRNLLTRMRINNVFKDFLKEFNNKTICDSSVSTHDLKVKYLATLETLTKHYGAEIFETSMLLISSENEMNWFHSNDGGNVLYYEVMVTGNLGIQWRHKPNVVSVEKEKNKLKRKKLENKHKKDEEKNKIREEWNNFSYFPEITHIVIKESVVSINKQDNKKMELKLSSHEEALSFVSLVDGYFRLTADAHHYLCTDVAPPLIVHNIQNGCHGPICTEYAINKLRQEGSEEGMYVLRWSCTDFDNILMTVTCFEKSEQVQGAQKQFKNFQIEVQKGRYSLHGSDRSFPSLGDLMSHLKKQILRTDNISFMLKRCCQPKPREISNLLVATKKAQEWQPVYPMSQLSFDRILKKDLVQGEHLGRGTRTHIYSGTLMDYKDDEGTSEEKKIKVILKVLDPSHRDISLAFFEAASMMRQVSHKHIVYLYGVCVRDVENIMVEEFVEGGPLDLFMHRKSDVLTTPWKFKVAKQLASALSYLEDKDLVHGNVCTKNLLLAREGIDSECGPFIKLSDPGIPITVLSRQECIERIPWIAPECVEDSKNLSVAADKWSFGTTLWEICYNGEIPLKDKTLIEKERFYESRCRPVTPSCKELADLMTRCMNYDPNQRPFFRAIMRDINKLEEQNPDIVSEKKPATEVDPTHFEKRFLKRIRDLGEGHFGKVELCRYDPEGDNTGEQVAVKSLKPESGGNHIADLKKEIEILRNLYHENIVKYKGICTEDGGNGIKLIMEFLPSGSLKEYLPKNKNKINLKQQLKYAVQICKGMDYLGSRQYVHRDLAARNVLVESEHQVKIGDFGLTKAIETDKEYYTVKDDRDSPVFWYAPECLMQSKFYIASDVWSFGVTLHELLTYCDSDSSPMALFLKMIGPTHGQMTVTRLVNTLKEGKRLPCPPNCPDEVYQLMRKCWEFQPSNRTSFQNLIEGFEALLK

One may read the IC50 as the midpoint of a concentration-inhibition curve. In the case of `O=C(O)c1ccc(-c2nc(-c3ccc(F)cc3)c(-c3cc[nH]c(=O)c3)[nH]2)cc1`, the IC50 in experiment [1] stood at 2.94 µM; in experiment [2], 24.8 µM; in experiment [3], 14.1 µM; in experiment [4] it was 0.274 µM; in experiment [5], 3.9 µM. The Ratio IC50 in experiment [6] and in experiment [7] was 10 each time. For the same compound, the inhibition entry in [8], in experiment [9] and in [10] was “inactive” each time.
